This experiment deals with panel of 4 panelists (sweet taste). In words: Organoleptic test of the compounds of formula (I) against sucrose and mogroside V. Format: in vivo. More on the design: key: 3 = sweeter than control, 1 = less sweet than control but still sweet. Particulars: compound 0.4 mg/ml (400 ppm) in non-carbonated mineral water; for Organoleptic evaluation compared to mogroside V*: control solution mogroside V 0.1 mg/ml (100 ppm); for Organoleptic evaluation compared to sucrose*: control solution sucrose 20 mg/ml. The procedure:
Organoleptic Test of the Compounds of Formula (I) Against Sucrose and Mogroside V
The isolated pure compounds were dissolved in non-carbonated mineral water (“Fonsana Quelle”) in a concentration of 0.4 mg/ml (400 ppm). The sweet taste of each sample was compared by a panel of 4 panelists with a solution of sucrose in a concentration of 20 mg/ml and with a solution of the known sweetener mogroside V (isolated by AnalytiCon from Momordica grosvenori) in a concentration of 0.1 mg/ml (100 ppm).
The sweetness was evaluated as follows:
3=sweeter than the control solution
1=less sweet than the control solution but still sweet

Molecules are shown by their SMILES.

For the molecule `C[C@H](CC[C@@H](O[C@@H]1O[C@H](CO)[C@@H](O)[C@H](O)[C@H]1O[C@@H]1O[C@H](CO)[C@@H](O)[C@H](O)[C@H]1O)C(C)(C)O)[C@H]1CC[C@@]2(C)[C@@H]3CC=C4C(CC[C@H](O)C4(C)C)[C@]3(C)[C@H](O)C[C@]12C` (stereo partly drawn) [Compound Aa, (2S,3R,4S,5S,6R)-2-((2S,3R,4S,5S,6R)-2-((3R,6R)-6-((3S,8S,9R,11R,13R,14S,17R)-3,11-dihydroxy-4,4,9,13,14-pentamethyl-2,3,4,7,8,9,10,11,12,13,14,15,16,17-tetradecahydro-1H-cyclopenta[a]phenanthren-17-yl)-2-hydroxy-2-methylheptan-3-yloxy)-4,5-dihydroxy-6-(hydroxymethyl)tetrahydro-2H-pyran-3-yloxy)-6-(hydroxymethyl)tetrahydro-2H-pyran-3,4,5-triol], the “Organoleptic evaluation compared to mogroside V*” value turned out to be 2 and the “Organoleptic evaluation compared to sucrose*” value is 3.
Taken in the same sequence, the figures for `C[C@H](CC[C@@H](O[C@@H]1O[C@H](CO[C@@H]2O[C@H](CO)[C@@H](O)[C@H](O)[C@H]2O)[C@@H](O)[C@H](O)[C@H]1O[C@@H]1O[C@H](CO)[C@@H](O)[C@H](O)[C@H]1O)C(C)(C)O)[C@H]1CC[C@@]2(C)C3CC=C4C(CC[C@H](O[C@@H]5O[C@H](CO)[C@@H](O[C@@H]6O[C@H](CO)[C@@H](O)[C@H](O)[C@H]6O)[C@H](O)[C@H]5O)C4(C)C)[C@]3(C)CC[C@]12C` (stereo partly shown) [Compound Cc] were 3 and 3.
The corresponding values for `C[C@H](CC[C@@H](O[C@@H]1O[C@H](CO[C@@H]2O[C@H](CO)[C@@H](O)[C@H](O)[C@H]2O)[C@@H](O)[C@H](O)[C@H]1O[C@@H]1O[C@H](CO)[C@@H](O)[C@H](O)[C@H]1O)C(C)(C)O)[C@H]1CC[C@@]2(C)[C@@H]3CC=C4C(CC[C@H](O[C@@H]5O[C@H](CO)[C@@H](O)[C@H](O)[C@H]5O[C@@H]5O[C@H](CO)[C@@H](O)[C@H](O)[C@H]5O)C4(C)C)[C@]3(C)CC[C@]12C` (stereo partly shown) [Compound Dd] are 3 and 3.
`C[C@H](CC[C@@H](O[C@@H]1O[C@H](CO[C@@H]2O[C@H](CO)[C@@H](O)[C@H](O)[C@H]2O)[C@@H](O)[C@H](O)[C@H]1O[C@@H]1O[C@H](CO)[C@@H](O)[C@H](O)[C@H]1O)C(C)(C)O)[C@H]1CC[C@@]2(C)[C@@H]3CC=C4C(CC[C@H](O[C@@H]5O[C@H](CO)[C@@H](O)[C@H](O)[C@H]5O)C4(C)C)[C@]3(C)CC[C@]12C` (stereo partly shown) [Compound Ee]: the “Organoleptic evaluation compared to mogroside V*” value is given as 3 and the “Organoleptic evaluation compared to sucrose*” value is given as 3.
Take `C[C@H](CC[C@@H](O[C@@H]1O[C@H](CO[C@@H]2O[C@H](CO)[C@@H](O)[C@H](O)[C@H]2O)[C@@H](O)[C@H](O)[C@H]1O[C@@H]1O[C@H](CO)[C@@H](O)[C@H](O)[C@H]1O)C(C)(C)O)[C@H]1CC[C@@]2(C)[C@@H]3CC=C4[C@@H](CC[C@H](O[C@@H]5O[C@H](CO)[C@@H](O)[C@H](O)[C@H]5O[C@@H]5O[C@H](CO)[C@@H](O)[C@H](O)[C@H]5O)C4(C)C)[C@]3(C)[C@H](O)C[C@]12C` [Compound Ff]: the “Organoleptic evaluation compared to mogroside V*” value was 2 and the “Organoleptic evaluation compared to sucrose*” value is reported as 3.
Taken in the same sequence, the figures for `C[C@H](CC[C@@H](O[C@@H]1O[C@H](CO)[C@@H](O)[C@H](O)[C@H]1O[C@@H]1O[C@H](CO)[C@@H](O)[C@H](O)[C@H]1O)C(C)(C)O)[C@H]1CC[C@@]2(C)C3CC=C4C(CC[C@H](O[C@@H]5O[C@H](CO)[C@@H](O)[C@H](O)[C@H]5O)C4(C)C)[C@]3(C)CC[C@]12C` (stereo partly shown) [Compound Gg] were 3 and 3.
The corresponding values for `C[C@H](CCC(=O)C(C)(C)O)[C@H]1CC[C@@]2(C)C3CC=C4[C@@H](CC[C@H](O[C@@H]5O[C@H](CO[C@@H]6O[C@H](CO)[C@@H](O)[C@H](O)[C@H]6O)[C@@H](O)[C@H](O)[C@H]5O)C4(C)C)[C@]3(C)[C@H](O)C[C@]12C` (stereo partly drawn) [Compound Hh, (6R)-2-hydroxy-6-((3S,9R,10R,11R,13R,14S,17R)-11-hydroxy-4,4,9,13,14-pentamethyl-3-((2R,3R,4S,5S,6R)-3,4,5-trihydroxy-6-(((2R,3R,4S,5S,6R)-3,4,5-trihydroxy-6-(hydroxymethyl)tetrahydro-2H-pyran-2-yloxy)methyl)tetrahydro-2H-pyran-2-yloxy)-2,3,4,7,8,9,10,11,12,13,14,15,16,17-tetradecahydro-1H-cyclopenta[a]phenanthren-17-yl)-2-methylheptan-3-one] are 1 and 2.
Taken in the same sequence, the figures for `C[C@H](CC[C@@H](O[C@@H]1O[C@H](CO[C@@H]2O[C@H](CO)[C@@H](O)[C@H](O)[C@H]2O)[C@@H](O)[C@H](O)[C@H]1O[C@@H]1O[C@H](CO)[C@@H](O)[C@H](O)[C@H]1O)C(C)(C)O)[C@H]1CC[C@@]2(C)C3CC=C4[C@@H](CCC(=O)C4(C)C)[C@]3(C)[C@H](O)C[C@]12C` (stereo partly shown) [Compound Jj] were 2 and 3.
With `C[C@H](CC[C@@H](O[C@@H]1O[C@H](CO[C@@H]2O[C@H](CO)[C@@H](O)[C@H](O)[C@H]2O)[C@@H](O)[C@H](O)[C@H]1O[C@@H]1O[C@H](CO)[C@@H](O)[C@H](O)[C@H]1O)C(C)(C)O)[C@H]1CC[C@@]2(C)C3CC=C4[C@@H](CC[C@H](O)C4(C)C)[C@]3(C)CC[C@]12C` (stereo partly shown) [Compound Kk], the “Organoleptic evaluation compared to mogroside V*” value was 1 and the “Organoleptic evaluation compared to sucrose*” value was 2.
Take `C[C@H](CC[C@@H](O[C@@H]1O[C@H](CO[C@@H]2O[C@H](CO)[C@@H](O)[C@H](O)[C@H]2O)[C@@H](O)[C@H](O)[C@H]1O[C@@H]1O[C@H](CO)[C@@H](O)[C@H](O)[C@H]1O)C(C)(C)O)[C@H]1CC[C@@]2(C)C3CC=C4[C@@H](CC[C@H](O[C@@H]5O[C@H](CO)[C@@H](O)[C@H](O)[C@H]5O)C4(C)C)[C@]3(C)C(=O)C[C@]12C` (stereo partly shown) [Compound Ll]: the “Organoleptic evaluation compared to mogroside V*” value came out at 3 and the “Organoleptic evaluation compared to sucrose*” value was 3.
`C[C@H](CC[C@@H](O[C@@H]1O[C@H](CO[C@@H]2O[C@H](CO)[C@@H](O)[C@H](O)[C@H]2O)[C@@H](O)[C@H](O)[C@H]1O[C@@H]1O[C@H](CO)[C@@H](O)[C@H](O)[C@H]1O)C(C)(C)O)[C@H]1CC[C@@]2(C)C3CC=C4[C@@H](CC[C@H](O[C@@H]5O[C@H](CO)[C@@H](O)[C@H](O)[C@H]5O)C4(C)C)[C@]3(C)CC[C@]12C` (stereo partly shown) [Compound Mm]: the “Organoleptic evaluation compared to mogroside V*” value turned out to be 3 and the “Organoleptic evaluation compared to sucrose*” value amounted to 3.

(Values after US10472385B2, “Triterpene-glycosides as sweeteners or sweetener enhancers” (priority 2013, dated 2019).)
